Results from patent US9340555B2, “Compounds as tyrosine kinase modulators” (Allergan, Inc., priority 2009, dated 2016).
pIC50: −log10 of the molar value.

What was measured:
[1] = target: VEGFR1 (Homo sapiens (Human), UniProt P17948); assay: Enzymic VEGFR1; type: biochemical
[2] = target: VEGFR2 (Homo sapiens (Human), UniProt P35968); assay: VEGF Stimulated Ca++ Signal In Vitro (Cellular VEGFR2, FLIPR); type: cell-based; conditions: HUVEC, VEGF stimulation (5 ng/mL), intracellular calcium
[3] = system: Rabbit Eye VEGF Permeability; assay: Rabbit Eye VEGF Permeability Model; type: in vivo
From the text: Rabbit Eye VEGF Permeability Model
Assay used was detailed by Jeffrey Edelman, etc in Exp. Eye. Res. 80 (2005), Pg 249-258.

[4] = target: human VEGF receptor (VEGFR-2) (Homo sapiens (Human), UniProt P35968); assay: VEGFR2 Kinase Assay (Enzymic VEGFR2); type: biochemical; conditions: His-VEGFR-2 cytoplasmic domain, 3.6 µM ATP
human VEGF receptor (VEGFR-2), sequence (P35968 786-1356): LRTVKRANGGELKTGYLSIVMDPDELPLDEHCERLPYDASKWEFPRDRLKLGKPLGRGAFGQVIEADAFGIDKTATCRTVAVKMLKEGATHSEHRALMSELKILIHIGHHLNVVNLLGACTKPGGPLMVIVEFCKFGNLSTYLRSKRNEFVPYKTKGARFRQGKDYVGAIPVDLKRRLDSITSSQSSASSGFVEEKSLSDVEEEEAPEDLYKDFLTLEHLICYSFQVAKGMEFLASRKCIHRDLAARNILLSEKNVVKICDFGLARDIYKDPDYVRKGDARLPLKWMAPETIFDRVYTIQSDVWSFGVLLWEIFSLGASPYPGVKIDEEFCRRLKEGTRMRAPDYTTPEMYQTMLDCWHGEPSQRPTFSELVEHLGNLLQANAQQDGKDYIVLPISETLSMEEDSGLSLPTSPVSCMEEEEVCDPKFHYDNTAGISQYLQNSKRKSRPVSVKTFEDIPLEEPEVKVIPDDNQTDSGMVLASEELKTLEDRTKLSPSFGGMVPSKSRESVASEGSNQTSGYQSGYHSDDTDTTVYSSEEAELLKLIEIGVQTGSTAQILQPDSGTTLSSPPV
Method: VEGFR2 Kinase Assay The cytoplasmic domain of the human VEGF receptor (VEGFR-2) was expressed as a Histidine-tagged fusion protein following infection of insect cells using an His engineered baculovirus. […] Kinase assays were performed in 96 well microtiter plates that were coated overnight with 30 µg of poly-Glu-[…]:1) in 10 mM Phosphate Buffered Saline (PBS), pH 7.2-7.4. The plates were incubated with 1% BSA and then washed four times with PBS prior to starting the reaction. […] Reactions were initiated by the addition 0.5 ng of purified protein. Following a ten minute incubation at 25° C., the reactions were washed four times with PBS containing 0.05% Tween-20. 100 µl of a monoclonal anti-phosphotyrosine antibody-peroxidase conjugate was diluted 1:10000 in PBS-Tween-20 and added to the wells for 30 minutes. Following four washes with PBS-Tween-20, 100 µl of 0-phenylenediamine Dihydrochloride in Phosphate-citrate buffer, containing urea hydrogen peroxide, was added to the wells for 7 minutes as a colorimetric substrate for the peroxidase. […] IC50 values for compound inhibition were calculated directly from graphs of optical density (arbitrary units) versus compound concentration following subtraction of blank values.

[5] = target: PDGFRβ (Homo sapiens (Human), UniProt P09619); assay: Enzymic PDGFRβ; type: biochemical
PDGFRβ, sequence (P09619 33-1106, species assumed): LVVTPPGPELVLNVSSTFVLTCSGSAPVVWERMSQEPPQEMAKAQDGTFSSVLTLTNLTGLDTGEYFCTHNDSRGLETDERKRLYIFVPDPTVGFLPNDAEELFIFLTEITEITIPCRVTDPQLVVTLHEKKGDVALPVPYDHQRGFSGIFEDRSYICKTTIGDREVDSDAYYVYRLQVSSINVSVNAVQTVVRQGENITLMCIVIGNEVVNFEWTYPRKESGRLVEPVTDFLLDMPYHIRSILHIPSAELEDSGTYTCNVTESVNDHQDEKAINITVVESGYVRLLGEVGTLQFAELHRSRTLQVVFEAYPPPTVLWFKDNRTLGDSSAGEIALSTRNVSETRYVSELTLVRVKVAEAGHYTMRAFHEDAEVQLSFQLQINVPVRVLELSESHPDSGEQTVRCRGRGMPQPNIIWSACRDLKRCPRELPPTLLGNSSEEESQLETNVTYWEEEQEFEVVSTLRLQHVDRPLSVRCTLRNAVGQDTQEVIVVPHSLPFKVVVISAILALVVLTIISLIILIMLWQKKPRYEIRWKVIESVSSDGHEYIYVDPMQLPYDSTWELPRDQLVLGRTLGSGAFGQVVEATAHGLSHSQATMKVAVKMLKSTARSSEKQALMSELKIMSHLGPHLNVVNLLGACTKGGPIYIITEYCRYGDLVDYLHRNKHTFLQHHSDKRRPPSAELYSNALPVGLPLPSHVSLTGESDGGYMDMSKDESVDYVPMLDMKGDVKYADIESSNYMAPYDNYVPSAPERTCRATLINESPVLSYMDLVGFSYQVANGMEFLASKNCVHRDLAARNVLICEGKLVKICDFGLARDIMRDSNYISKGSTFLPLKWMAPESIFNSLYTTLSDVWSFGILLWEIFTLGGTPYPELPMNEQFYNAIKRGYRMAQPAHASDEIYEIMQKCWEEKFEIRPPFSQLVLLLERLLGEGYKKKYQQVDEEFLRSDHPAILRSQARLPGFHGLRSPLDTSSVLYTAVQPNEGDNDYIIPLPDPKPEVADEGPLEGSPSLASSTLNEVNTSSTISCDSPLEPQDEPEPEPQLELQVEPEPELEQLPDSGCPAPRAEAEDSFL

VEGFR1, sequence (P17948 27-1338, species assumed): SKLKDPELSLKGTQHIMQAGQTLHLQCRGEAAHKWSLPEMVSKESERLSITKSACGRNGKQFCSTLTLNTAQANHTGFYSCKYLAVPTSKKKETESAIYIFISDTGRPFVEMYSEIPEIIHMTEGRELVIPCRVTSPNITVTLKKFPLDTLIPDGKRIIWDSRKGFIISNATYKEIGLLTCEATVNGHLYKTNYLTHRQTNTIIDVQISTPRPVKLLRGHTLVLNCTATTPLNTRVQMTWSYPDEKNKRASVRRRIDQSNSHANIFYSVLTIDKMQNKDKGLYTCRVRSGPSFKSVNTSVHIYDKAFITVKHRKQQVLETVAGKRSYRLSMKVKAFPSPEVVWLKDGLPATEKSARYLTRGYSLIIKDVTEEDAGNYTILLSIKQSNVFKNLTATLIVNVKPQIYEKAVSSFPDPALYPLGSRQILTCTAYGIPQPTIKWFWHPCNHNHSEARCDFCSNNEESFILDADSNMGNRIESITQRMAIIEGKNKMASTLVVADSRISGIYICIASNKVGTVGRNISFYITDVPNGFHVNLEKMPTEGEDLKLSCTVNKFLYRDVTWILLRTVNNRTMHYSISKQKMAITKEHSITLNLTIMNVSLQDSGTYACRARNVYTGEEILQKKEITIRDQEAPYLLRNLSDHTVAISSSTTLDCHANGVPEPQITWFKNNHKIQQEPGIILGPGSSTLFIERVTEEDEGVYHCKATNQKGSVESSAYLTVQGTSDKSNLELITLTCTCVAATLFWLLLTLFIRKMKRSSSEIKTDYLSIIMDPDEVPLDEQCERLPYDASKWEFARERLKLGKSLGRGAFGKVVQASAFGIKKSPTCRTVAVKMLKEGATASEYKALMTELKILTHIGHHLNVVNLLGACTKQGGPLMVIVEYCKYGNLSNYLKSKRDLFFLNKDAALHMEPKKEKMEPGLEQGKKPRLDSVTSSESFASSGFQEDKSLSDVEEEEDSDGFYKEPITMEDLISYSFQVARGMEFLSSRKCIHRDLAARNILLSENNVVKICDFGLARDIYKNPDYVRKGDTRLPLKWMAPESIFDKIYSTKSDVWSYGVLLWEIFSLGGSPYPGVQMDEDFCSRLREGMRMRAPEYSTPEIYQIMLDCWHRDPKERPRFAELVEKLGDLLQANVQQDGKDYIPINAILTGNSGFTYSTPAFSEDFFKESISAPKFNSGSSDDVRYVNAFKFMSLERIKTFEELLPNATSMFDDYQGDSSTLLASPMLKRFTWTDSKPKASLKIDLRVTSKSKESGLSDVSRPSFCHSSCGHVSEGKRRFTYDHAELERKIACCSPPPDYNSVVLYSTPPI
VEGFR2, sequence (P35968 20-1356): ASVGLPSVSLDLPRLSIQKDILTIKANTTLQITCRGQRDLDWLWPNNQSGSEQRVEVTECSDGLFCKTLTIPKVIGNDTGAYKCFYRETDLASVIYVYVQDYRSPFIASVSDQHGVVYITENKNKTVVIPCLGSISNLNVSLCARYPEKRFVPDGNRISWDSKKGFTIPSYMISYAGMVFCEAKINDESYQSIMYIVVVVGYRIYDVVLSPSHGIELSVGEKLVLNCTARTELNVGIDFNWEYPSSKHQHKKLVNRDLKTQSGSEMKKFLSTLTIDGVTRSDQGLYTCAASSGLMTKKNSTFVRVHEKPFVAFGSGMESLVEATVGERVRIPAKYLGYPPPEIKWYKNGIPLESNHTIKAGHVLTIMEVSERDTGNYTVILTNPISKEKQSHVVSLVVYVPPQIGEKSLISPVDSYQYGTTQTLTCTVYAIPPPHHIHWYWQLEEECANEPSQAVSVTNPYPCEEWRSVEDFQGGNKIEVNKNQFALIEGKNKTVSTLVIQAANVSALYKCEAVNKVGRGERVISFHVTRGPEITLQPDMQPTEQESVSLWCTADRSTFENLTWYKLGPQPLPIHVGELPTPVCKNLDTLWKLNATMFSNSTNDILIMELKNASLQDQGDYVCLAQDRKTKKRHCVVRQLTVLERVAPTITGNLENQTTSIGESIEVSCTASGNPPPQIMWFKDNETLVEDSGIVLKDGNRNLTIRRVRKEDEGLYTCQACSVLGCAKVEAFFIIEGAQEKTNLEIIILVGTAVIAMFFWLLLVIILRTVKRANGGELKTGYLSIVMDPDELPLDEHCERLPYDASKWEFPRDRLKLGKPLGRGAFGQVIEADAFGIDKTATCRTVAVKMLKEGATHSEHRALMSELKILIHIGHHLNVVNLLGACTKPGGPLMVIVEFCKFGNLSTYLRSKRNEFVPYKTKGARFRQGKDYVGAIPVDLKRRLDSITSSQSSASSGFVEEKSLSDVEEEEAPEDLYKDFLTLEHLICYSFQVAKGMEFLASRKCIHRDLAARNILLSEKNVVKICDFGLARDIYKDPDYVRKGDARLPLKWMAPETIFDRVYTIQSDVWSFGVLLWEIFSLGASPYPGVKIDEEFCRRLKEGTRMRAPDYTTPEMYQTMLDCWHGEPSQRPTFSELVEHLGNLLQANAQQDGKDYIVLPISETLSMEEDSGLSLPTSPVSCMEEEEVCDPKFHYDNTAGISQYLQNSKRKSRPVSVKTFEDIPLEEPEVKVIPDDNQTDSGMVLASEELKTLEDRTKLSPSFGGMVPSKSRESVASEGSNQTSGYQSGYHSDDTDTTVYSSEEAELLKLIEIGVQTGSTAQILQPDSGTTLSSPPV

Cc1ccc(F)c(NC(=O)Nc2ccc(Oc3ccnc4cc(C(=O)O)sc34)cc2)c1 [Compound F2, 7-[4-({[(2-Fluoro-5-methylphenyl)amino]carbonyl}amino)phenoxy]thieno[3,2-b]pyridine-2-carboxylic acid]
pIC50 [1]: 7.80 | pIC50 [2]: 7.54 | In Vivo Rabbit Eye VEGF Permeability [3]: efficacious | pIC50 [4]: 7.70

Cc1ccc(F)c(NC(=O)Nc2ccc(Oc3ccnc4cc(C(=O)NCCCc5nn[nH]n5)sc34)cc2)c1 [Example 12, 7-[4-({[(2-fluoro-5-methylphenyl)amino]carbonyl}amino)phenoxy]-N-[3-(2H-tetrazol-5-yl)propyl]thieno[3,2-b]pyridine-2-carboxamide]
pIC50 [1]: 8.40 | pIC50 [2]: 6.90 | pIC50 [5]: 7.70 | pIC50 [4]: 8.52

Cc1ccc(F)c(NC(=O)Nc2ccc(Oc3ccnc4cc(C(=O)NCCc5nn[nH]n5)sc34)cc2)c1 [Example 13, 7-[4-({[(2-fluoro-5-methylphenyl)amino]carbonyl}amino)phenoxy]-N-[2-(2H-tetrazol-5-yl)ethyl]thieno[3,2-b]pyridine-2-carboxamide]
pIC50 [1]: 8.00 | pIC50 [2]: 7.01 | pIC50 [5]: 7.72 | pIC50 [4]: 8.22

CCOC(=O)CN1CCN(CCCNC(=O)c2cc3nccc(Oc4ccc(NC(=O)Nc5cc(C)ccc5F)cc4)c3s2)CC1 [Example 14, ethyl (4-{3-[({7-[4-({[(2-fluoro-5-methylphenyl)amino]carbonyl}amino)phenoxy]thieno[3,2-b]pyridin-2-yl}carbonyl)amino]propyl}piperazin-1-yl)acetate]
pIC50 [1]: 8.30 | pIC50 [2]: 7.47 | pIC50 [5]: 7.89 | pIC50 [4]: 8.40

Cc1ccc(F)c(NC(=O)Nc2ccc(Oc3ccnc4cc(C(=O)NCCCN5CCCC(CO)C5)sc34)cc2)c1 (centres unmarked) [Example 15, 7-[4-({[(2-fluoro-5-methylphenyl)amino]carbonyl}amino)phenoxy]-N-{3-[3-(hydroxymethyl)piperidin-1-yl]propyl}thieno[3,2-b]pyridine-2-carboxamide]
pIC50 [1]: 8.52 | pIC50 [2]: 7.41 | pIC50 [5]: 8.00 | pIC50 [4]: 8.52

COC(=O)CNCCCNC(=O)c1cc2nccc(Oc3ccc(NC(=O)Nc4cc(C)ccc4F)cc3)c2s1 [Example 18, methyl ({3-[({7-[4-({[(2-fluoro-5-methylphenyl)amino]carbonyl}amino)phenoxy]thieno[3,2-b]pyridin-2-yl}carbonyl)amino]propyl}amino)acetate]
pIC50 [1]: 8.22 | pIC50 [2]: 9.10 | In Vivo Rabbit Eye VEGF Permeability [3]: Efficacious | pIC50 [5]: 7.96 | pIC50 [4]: 8.52

COC(=O)CN(CCCNC(=O)c1cc2nccc(Oc3ccc(NC(=O)Nc4cc(C)ccc4F)cc3)c2s1)CC(=O)OC [Example 19, dimethyl 2,2′-({3-[({7-[4-({[(2-fluoro-5-methylphenyl)amino]carbonyl}amino)phenoxy]thieno[3,2-b]pyridin-2-yl}carbonyl)amino]propyl}imino)diacetate]
pIC50 [1]: 8.05 | pIC50 [2]: 9.52 | pIC50 [5]: 7.85 | pIC50 [4]: 8.40

CCOC(=O)N1CCN(CCNC(=O)c2cc3nccc(Oc4ccc(NC(=O)Nc5cc(C)ccc5F)c(F)c4)c3s2)CC1 [Example 23, ethyl 4-{2-[({7-[3-fluoro-4-({[(2-fluoro-5-methylphenyl)amino]carbonyl}amino)phenoxy]thieno[3,2-b]pyridin-2-yl}carbonyl)amino]ethyl}piperazine-1-carboxylate]
pIC50 [1]: 7.89 | pIC50 [2]: 8.05 | pIC50 [5]: 7.85 | pIC50 [4]: 8.15

COC(=O)CNCCNC(=O)c1cc2nccc(Oc3ccc(NC(=O)Nc4cc(C)ccc4F)c(F)c3)c2s1 [Example 31, methyl ({2-[({7-[3-fluoro-4-({[(2-fluoro-5-methylphenyl)amino]carbonyl}amino)phenoxy]thieno[3,2-b]pyridin-2-yl}carbonyl)amino]ethyl}amino)acetate]
pIC50 [1]: 8.05 | pIC50 [5]: 7.89 | pIC50 [4]: 8.05

Cc1ccc(F)c(NC(=O)Nc2ccc(Oc3ccnc4cc(C(=O)NCCN)sc34)cc2F)c1 [Example 32, N-(2-aminoethyl)-7-[3-fluoro-4-({[(2-fluoro-5-methylphenyl)amino]carbonyl}amino)phenoxy]thieno[3,2-b]pyridine-2-carboxamide]
pIC50 [1]: 7.96 | pIC50 [5]: 7.82 | pIC50 [4]: 8.40

Cc1ccc(F)c(NC(=O)Nc2ccc(Oc3ccnc4cc(C(=O)NCCNC(=O)OC(C)(C)C)sc34)cc2F)c1 [Example 33]
pIC50 [1]: 7.22 | pIC50 [5]: 7.16 | pIC50 [4]: 7.62

Cc1ccc(F)c(NC(=O)Nc2ccc(Oc3ccnc4cc(C(=O)NCCCN5CCN(C)CC5)sc34)cc2F)c1 [Example 34, 7-[3-fluoro-4-({[(2-fluoro-5-methylphenyl)amino]carbonyl}amino)phenoxy]-N-[3-(4-methylpiperazin-1-yl)propyl]thieno[3,2-b]pyridine-2-carboxamide]
pIC50 [1]: 8.22 | pIC50 [5]: 7.96 | pIC50 [4]: 8.52

Cc1ccc(F)c(NC(=O)Nc2ccc(Oc3ccnc4cc(C(=O)NCCCN5CCOC(CO)C5)sc34)cc2F)c1 (centres unmarked) [Example 37, 7-[3-fluoro-4-({[(2-fluoro-5-methylphenyl)amino]carbonyl}amino)phenoxy]-N-{3-[2-(hydroxymethyl)morpholin-4-yl]propyl}thieno[3,2-b]pyridine-2-carboxamide]
pIC50 [1]: 8.05 | pIC50 [2]: 9.00 | pIC50 [4]: 8.15

Cc1ccc(F)c(NC(=O)Nc2ccc(Oc3ccnc4cc(C(=O)NCCCN5CCC(O)CC5)sc34)cc2F)c1 [Example 38, 7-[3-fluoro-4-({[(2-fluoro-5-methylphenyl)amino]carbonyl}amino)phenoxy]-N-[3-(4-hydroxypiperidin-1-yl)propyl]thieno[3,2-b]pyridine-2-carboxamide]
pIC50 [1]: 8.10 | pIC50 [2]: 7.85 | pIC50 [4]: 8.15

COC(=O)[C@@H]1C[C@@H](O)CN1CCCNC(=O)c1cc2nccc(Oc3ccc(NC(=O)Nc4cc(C)ccc4F)c(F)c3)c2s1 [Example 39, methyl (2S,4R)-1-{3-[({7-[3-fluoro-4-({[(2-fluoro-5-methylphenyl)amino]carbonyl}amino)phenoxy]thieno[3,2-b]pyridin-2-yl}carbonyl)amino]propyl}-4-hydroxypyrrolidine-2-carboxylate]
pIC50 [1]: 8.10 | pIC50 [2]: 8.70 | pIC50 [4]: 8.30

CCNC(=O)[C@H](CCC(=O)O)NC(=O)c1cc2nccc(Oc3ccc(NC(=O)Nc4cc(C)ccc4F)c(F)c3)c2s1 [Example 46, (4S)-5-(ethylamino)-4-[({7-[3-fluoro-4-({[(2-fluoro-5-methylphenyl)amino]carbonyl}amino)phenoxy]thieno[3,2-b]pyridin-2-yl}carbonyl)amino]-5-oxopentanoic acid]
pIC50 [2]: 6.48 | In Vivo Rabbit Eye VEGF Permeability [3]: Efficacious | pIC50 [4]: 7.72

Cc1ccc(F)c(NC(=O)Nc2ccc(Oc3ccnc4cc(C(=O)NCCCN5CCC(C(=O)O)C5)sc34)cc2F)c1 (centres unmarked) [Example 50, 1-{3-[({7-[3-fluoro-4-({[(2-fluoro-5-methylphenyl)amino]carbonyl}amino)phenoxy]thieno[3,2-b]pyridin-2-yl}carbonyl)amino]propyl}pyrrolidine-3-carboxylic acid]
pIC50 [1]: 7.74 | pIC50 [2]: 7.10 | pIC50 [4]: 7.80

Cc1ccc(F)c(NC(=O)Nc2ccc(Oc3ccnc4cc(C(=O)NCCCN5CCOCC5)sc34)cc2F)c1 [Example 55, 7-[3-fluoro-4-({[(2-fluoro-5-methylphenyl)amino]carbonyl}amino)phenoxy]-N-(3-morpholin-4-ylpropyl)thieno[3,2-b]pyridine-2-carboxamide]
pIC50 [1]: 8.15 | pIC50 [2]: 8.15 | In Vivo Rabbit Eye VEGF Permeability [3]: Efficacious | pIC50 [4]: 7.96

CCOC(=O)CCCNC(=O)c1cc2nccc(Oc3ccc(NC(=O)Nc4cc(C)ccc4F)c(F)c3)c2s1 [Example 57, ethyl 4-[({7-[3-fluoro-4-({[(2-fluoro-5-methylphenyl)amino]carbonyl}amino)phenoxy]thieno[3,2-b]pyridin-2-yl}carbonyl)amino]butanoate]
pIC50 [1]: 7.82 | pIC50 [2]: 9.00 | pIC50 [4]: 7.85

Cc1ccc(F)c(NC(=O)Nc2ccc(Oc3ccnc4cc(C(=O)NCCCC(=O)O)sc34)cc2)c1 [Example 65, 4-[({7-[4-({[(2-fluoro-5-methylphenyl)amino]carbonyl}amino)phenoxy]thieno[3,2-b]pyridin-2-yl}carbonyl)amino]butanoic acid]
pIC50 [1]: 8.15 | pIC50 [2]: 8.70 | pIC50 [4]: 7.92

CCN(CC)CCNC(=O)c1cc2nccc(Oc3ccc(NC(=O)Nc4cc(C)ccc4F)cc3)c2s1 [Example 69, N-[2-(diethylamino)ethyl]-7-[4-({[(2-fluoro-5-methylphenyl)amino]carbonyl}amino)phenoxy]thieno[3,2-b]pyridine-2-carboxamide]
pIC50 [1]: 8.30 | pIC50 [2]: 7.96 | pIC50 [5]: 7.89 | pIC50 [4]: 8.40
